How the values were obtained:
[1] = test system: mitochondrial complex proteins (MCP) I and V; assay: Western blot of mitochondrial complex proteins (MCP) in coronary artery endothelial cells; format: cell-based, human (HCAEC) or bovine (BCAEC); details: HCAEC or BCAEC, Western blot band intensity; results shown in FIG. 2
Procedure: The effect of (−)-epicatechin analogs on mitochondrial complex proteins (MCP) I and V was studied human (HCAEC) or bovine (BCAEC) Coronary Artery Endothelial cells. Western blots were performed as follows: Approximately 50 mg of cells were homogenized with a polytron in 500 μl lysis buffer (1% triton X-100, 20 mM Tris, 140 mM NaCl, 2 mM EDTA, and 0.1% SDS) with protease and phosphatase inhibitor cocktails (P2714 and P2850, Sigma-Aldrich, St. Louis, Mo.) supplemented with 0.15 mM PMSF, 5 mM Na3VO4 and 3 mM NaF. Homogenates were passed through an insulin syringe five times, sonicated for 30 min at 4° C. and centrifuged (12,000 g) for 10 min. The total protein content was measured in the supernatant using the Bradford method. A total of 40 μg of protein was loaded onto a 4%-15% precast TGX polyacrylamide gel (Bio-rad), electrotransferred (12 V, 50 minutes), incubated for 1 h in blocking solution (5% nonfat dry milk in TBS plus 0.1% Tween 20 [TBS-T]). Blots were probed with a cocktail of monoclonal antibodies to electron transport chain proteins (OXPHOS) (20 KDa subunit of complex I, 26 KDa subunit of complex IV, subunit core 2 of complex III, 30 Kda complex II and ATP synthase 54 Kda complex V). […] The band intensities were digitally quantified using ImageJ software (http://www.nih.gov).

[2] = rat; cited from earlier work
[3] = humans, ingested in chocolate; cited from earlier work
MRP2 efflux transporter = molecular target: T1, MRP2 efflux transporter (Homo sapiens, UniProt Q92887); details: human intestinal Caco-2 cells; cited from earlier work
T1 construct: In a study of enterocyte absorption using human intestinal Caco-2 cells; endogenous in cells; host or cells: Caco-2
T1 sequence (Q92887 whole entry): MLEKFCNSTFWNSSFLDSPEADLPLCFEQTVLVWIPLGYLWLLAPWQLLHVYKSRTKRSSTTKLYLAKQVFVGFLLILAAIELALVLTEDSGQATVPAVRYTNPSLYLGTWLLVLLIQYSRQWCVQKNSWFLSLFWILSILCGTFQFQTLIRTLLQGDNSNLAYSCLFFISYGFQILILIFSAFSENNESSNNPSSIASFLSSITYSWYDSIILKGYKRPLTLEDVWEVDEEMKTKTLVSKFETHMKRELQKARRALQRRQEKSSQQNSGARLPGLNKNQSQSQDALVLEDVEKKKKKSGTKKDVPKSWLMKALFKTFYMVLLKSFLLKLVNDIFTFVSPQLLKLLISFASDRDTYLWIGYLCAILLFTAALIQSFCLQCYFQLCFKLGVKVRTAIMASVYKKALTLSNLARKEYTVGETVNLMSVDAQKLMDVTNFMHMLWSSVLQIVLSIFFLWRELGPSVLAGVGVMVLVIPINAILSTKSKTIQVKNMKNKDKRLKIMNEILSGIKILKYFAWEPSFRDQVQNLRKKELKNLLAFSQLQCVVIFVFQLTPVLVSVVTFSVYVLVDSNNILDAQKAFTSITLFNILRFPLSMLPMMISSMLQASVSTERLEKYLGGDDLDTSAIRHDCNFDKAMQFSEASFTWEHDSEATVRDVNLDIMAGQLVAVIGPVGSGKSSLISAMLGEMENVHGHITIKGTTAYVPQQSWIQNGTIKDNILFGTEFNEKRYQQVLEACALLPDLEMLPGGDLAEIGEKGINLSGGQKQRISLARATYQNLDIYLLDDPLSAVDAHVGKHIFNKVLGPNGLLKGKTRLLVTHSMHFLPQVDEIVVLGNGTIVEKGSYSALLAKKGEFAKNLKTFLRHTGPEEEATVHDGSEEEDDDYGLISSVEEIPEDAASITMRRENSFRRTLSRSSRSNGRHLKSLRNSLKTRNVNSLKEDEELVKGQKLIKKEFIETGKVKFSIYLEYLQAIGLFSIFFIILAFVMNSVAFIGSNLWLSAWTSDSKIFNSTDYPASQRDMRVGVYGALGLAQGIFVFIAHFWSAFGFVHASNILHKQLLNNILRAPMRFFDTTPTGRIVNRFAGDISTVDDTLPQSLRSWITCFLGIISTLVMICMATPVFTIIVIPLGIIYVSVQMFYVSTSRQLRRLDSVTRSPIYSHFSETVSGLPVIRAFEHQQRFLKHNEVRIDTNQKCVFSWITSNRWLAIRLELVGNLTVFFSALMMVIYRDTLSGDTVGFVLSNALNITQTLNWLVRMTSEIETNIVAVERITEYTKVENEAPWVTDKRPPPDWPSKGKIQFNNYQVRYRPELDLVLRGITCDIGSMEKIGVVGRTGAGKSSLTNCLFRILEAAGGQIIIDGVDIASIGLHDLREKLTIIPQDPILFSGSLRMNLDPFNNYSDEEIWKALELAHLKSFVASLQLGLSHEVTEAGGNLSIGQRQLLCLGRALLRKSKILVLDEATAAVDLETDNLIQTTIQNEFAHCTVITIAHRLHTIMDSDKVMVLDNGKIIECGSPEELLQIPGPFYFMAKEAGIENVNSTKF

COc1cc(OC)c2c(c1)O[C@H](c1ccc(O)c(O)c1)[C@H](O)C2 [5,7-dimethyl substituted (−)-epicatechin]
effect on MCP (activity/potency) relative to (−)-epicatechin [1]: less potent than the unsubstituted parent

Oc1cc(O)c2c(c1)O[C@H](c1ccc(O)c(O)c1)[C@@H](O)C2 [(+)-catechin]
effect on absorption of (−)-epicatechin [2]: inhibited

Oc1cc(O)c2c(c1)O[C@H](c1ccc(O)c(O)c1)[C@H](O)C2 [(−)-epicatechin, (2R,3R)-2-(3,4-dihydroxyphenyl)chroman-3,5,7-triol]
fraction absorbed [3]: approximately 30% | efflux transporter substrate status (MRP2 efflux transporter): substrate of the MRP2 efflux transporter

CN(C)C(=O)CCSC(SCCC(=O)O)c1cccc(/C=C/c2ccc3ccc(Cl)cc3n2)c1 (centres unmarked) [MK-571]
effect of MRP2 inhibition on absorption of (−)-epicatechin (MRP2 efflux transporter): increased absorption of (−)-epicatechin somewhat
